The experiment has as its target T1, Recombinant human CDK9/cyclin T1 (Homo sapiens, UniProt P50750).
T1 construct: purchased Carna bioscience 04-110
Briefly: CDK9 enzyme inhibitory activity (ADP-Glo kinase assay). It is filed as biochemical. Particulars: CDK9 enzyme activity, average of two independent repeats; for inhibition at 0.01 µM: compound 10 nM, read-out: Inhibition rate at different concentrations (%) 10 nM; for inhibition at 0.1 µM: compound 100 nM, read-out: Inhibition rate at different concentrations (%) 100 nM. The procedure:
Experimental method: Recombinant human CDK9/cyclin T1 (Carna bioscience, Cat #04-110) was diluted with dilution buffer (20 mM Tris HCl (pH 7.5), 0.02% Triton X-100, 0.01% BSA, 2 mM DTT, 0.5 mM Na3VO4, 10% Glycerol) to […], the substrates CDK7/9 tide (ThermoFisher, Cat #PV5090) and ATP (sigmaaldrich, Cat #A1852) were diluted with assay buffer (25 mM Tris HCl (pH7.5), 10 mM MgCl2, 0.5 mM EGTA (pH 8), 0.5 mM Na3VO4, 5 mMb-glycerol phosphate, 0.1% Triton X-100, 2.5 mM DTT) to final concentrations of 100 μM and […] respectively, aliquot and set aside. 2 μl of diluted recombinant human CDK9/cyclin T1, 1 μl of test compound, and 2 μl of diluted substrate CDK7/9 tide containing ATP were added to the 384-well plate. […] The positive control was the well in which enzyme and substrate were co-incubated, and the negative control was the well in which dilution buffer and substrate were co-incubated. The inhibition rate was calculated according to the following formula.
On the technique in general: ADP-Glo first removes unused ATP, then detects ADP through luciferase.

T1 sequence (P50750 whole entry): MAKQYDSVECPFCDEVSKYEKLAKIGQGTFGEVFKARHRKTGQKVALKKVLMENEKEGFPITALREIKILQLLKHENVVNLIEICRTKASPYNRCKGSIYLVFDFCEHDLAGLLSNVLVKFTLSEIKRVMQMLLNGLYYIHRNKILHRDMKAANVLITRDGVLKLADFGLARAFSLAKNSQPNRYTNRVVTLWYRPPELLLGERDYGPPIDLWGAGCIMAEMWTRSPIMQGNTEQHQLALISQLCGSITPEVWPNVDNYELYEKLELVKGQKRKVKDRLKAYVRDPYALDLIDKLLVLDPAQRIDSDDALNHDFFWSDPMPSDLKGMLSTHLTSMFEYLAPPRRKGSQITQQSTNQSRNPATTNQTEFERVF
T1 sequence (O60563 whole entry partner): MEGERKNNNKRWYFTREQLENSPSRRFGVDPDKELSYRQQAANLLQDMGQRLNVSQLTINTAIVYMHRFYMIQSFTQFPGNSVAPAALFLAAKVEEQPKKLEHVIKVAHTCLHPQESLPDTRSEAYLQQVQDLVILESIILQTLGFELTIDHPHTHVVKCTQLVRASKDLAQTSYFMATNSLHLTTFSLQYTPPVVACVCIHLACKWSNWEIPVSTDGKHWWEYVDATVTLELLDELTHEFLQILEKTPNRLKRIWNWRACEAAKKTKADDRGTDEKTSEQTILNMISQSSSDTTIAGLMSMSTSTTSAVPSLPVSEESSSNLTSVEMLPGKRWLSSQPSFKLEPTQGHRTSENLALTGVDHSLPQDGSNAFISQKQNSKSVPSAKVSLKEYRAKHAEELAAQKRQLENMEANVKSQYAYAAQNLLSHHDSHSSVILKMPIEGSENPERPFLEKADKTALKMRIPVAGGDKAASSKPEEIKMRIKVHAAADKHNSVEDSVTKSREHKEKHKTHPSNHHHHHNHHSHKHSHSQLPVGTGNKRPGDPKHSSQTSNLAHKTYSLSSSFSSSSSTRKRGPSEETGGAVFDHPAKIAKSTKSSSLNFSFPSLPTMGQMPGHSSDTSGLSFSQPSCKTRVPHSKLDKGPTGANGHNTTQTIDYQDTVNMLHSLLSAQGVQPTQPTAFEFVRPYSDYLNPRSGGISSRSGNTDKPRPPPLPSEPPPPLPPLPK

Regarding `COc1cc(F)c(F)cc1-c1ccnc(NC(=O)NC2CCC(N)CC2)c1` (stereo not drawn) [Example 5, 1-((1r,4r)-4-aminocyclohexyl)-3-(4-(4,5-difluoro-2-methoxyphenyl)pyridin-2-yl)urea], the inhibition at 0.01 µM amounted to 46.2% and the inhibition at 0.1 µM was determined as 88.2%.
Consider `COCCNC1CCC(NC(=O)Nc2cc(-c3ccc(F)cc3Cl)ccn2)CC1` (stereo not drawn) [Example 11, 1-(4-(2-chloro-4-fluorophenyl)pyridin-2-yl)-3-((1r,4r)-4-((2-methoxyethyl)amino)cyclohexyl)urea], for which the inhibition at 0.01 µM is 24.7% and the inhibition at 0.1 µM turned out to be 93.4%.
In the same order, the values of `Cc1c(-c2cc(NC(=O)NC3CCC(N)CC3)ncc2Cl)cnn1C` (stereo not drawn) [Example 42, 1-((1r,4r)-4-aminocyclohexyl)-3-(5-chloro-4-(1,5-dimethyl-1H-pyrazol-4-yl)pyridin-2-yl)urea] are 44% and 75%.
On to `COc1cc(F)ccc1-c1cc(NC(=O)NC2CCC(NCCN(C)C)CC2)ncc1Cl` (stereo not drawn) [Example 27, 1-(5-chloro-4-(4-fluoro-2-methoxyphenyl)pyridin-2-yl)-3-((1r,4r)-4-((2-(dimethylamino)ethyl)amino)cyclohexyl)urea], for which the inhibition at 0.01 µM came out at 44.2% and the inhibition at 0.1 µM was 78.4%.
For the compound `CC(=O)NC1CCC(NC(=O)Nc2cc(-c3cnc4n3CC(C)(C)C4)c(Cl)cn2)CC1` (stereo not drawn) [Example 86, N-((1r,4r)-4-(3-(5-chloro-4-(6,6-dimethyl-6,7-dihydro-5H-pyrrolo [1,2-a]imidazol-3-)pyridin-2-yl)ureido)cyclohexyl)acetamide], the inhibition at 0.01 µM turned out to be 50.1% and the inhibition at 0.1 µM amounted to 88.3%.
Consider `CC(=O)NC1CCC(NC(=O)Nc2cc(-c3cnn4c3CC3(CC3)C4)c(Cl)cn2)CC1` (stereo not drawn) [Example 81, N-((1r,4r)-4-(3-(5-chloro-4-(4′H,6′H-spiro[cyclopropane-1,5′-pyrrolo[1,2-b]pyrazole]-3′-yl)pyridin-2-yl)ureido)cyclohexyl)acetamide], for which the inhibition at 0.01 µM was determined as 58.3% and the inhibition at 0.1 µM amounted to 91.5%.
In the same order, the values of `[2H]C([2H])([2H])C(=O)NC1CCC(NC(=O)Nc2cc(-c3cnn4c3CC(C)(C)C4)c(Cl)cn2)CC1` (stereo not drawn) [Example 54, N-((1r,4r)-4-(3-(5-chloro-4-(5,5-dimethyl-5,6-dihydro-4H-pyrrolo[1,2-b]pyrazol-3-yl)pyridin-2-yl)ureido)cyclohexyl)acetamide-2,2,2-d3] are 70.8% and 97.4%.
In the same order, the values of `CC1(C)Cc2c(-c3ccnc(NC(=O)NC4CCC(N)CC4)c3)cnn2C1` (stereo not drawn) [Example 15, 1-((1r,4r)-4-aminocyclohexyl)-3-(4-(5,5-dimethyl-5,6-dihydro-4H-pyrrole [1,2-b]pyrazole-3-yl)pyridin-2-yl) urea] are 51.1% and 91.5%.
For `CN(C)CCNC1CCC(NC(=O)Nc2cc(-c3cnn4c3CC(C)(C)C4)c(Cl)cn2)CC1` (stereo not drawn) [Example 56, 1-(5-chloro-4-(5,5-dimethyl-5,6-dihydro-4H-pyrrolo[1,2-b]pyrazol-3-yl)pyridin-2-yl)-3-((1r,4r)-4-((2-(dimethylamino)ethyl)amino)cyclohexyl)urea], the inhibition at 0.01 µM was 44.9% and the inhibition at 0.1 µM worked out at 95.2%.
In the same order, the values of `CC(=O)NC1CCC(NC(=O)Nc2cc(-c3cnn4c3CC(C)(C)C4)c(C)cn2)CC1` (stereo not drawn) [Example 52, N-((1r,4r)-4-(3-(4-(5,5-dimethyl-5,6-dihydro-4H-pyrrolo[1,2-b]pyrazol-3-yl-S-methylpyridin-2-yl)ureido)cyclohexyl)acetamide] are 39.7% and 78.5%.
For the compound `CC1(C)Cc2c(-c3cc(NC(=O)NC4CCC(NCCF)CC4)ncc3Cl)cnn2C1` (stereo not drawn) [Example 61, 1-(5-chloro-4-(5,5-dimethyl-5,6-dihydro-4H-pyrrolo[1,2-b]pyrazol-3-yl)pyridin-2-yl)-3-((1r,4r)-4-((2-fluoroethyl)amino)cyclohexyl)urea], the inhibition at 0.01 µM is 58.3% and the inhibition at 0.1 µM was 85.1%.
In the same order, the values of `CC(C)NC1CCC(NC(=O)Nc2cc(-c3cnn4c3CC(C)(C)C4)c(Cl)cn2)CC1` (stereo not drawn) [Example 60, 1-(5-chloro-4-(5,5-dimethyl-5,6-dihydro-4H-pyrrolo[1,2-b]pyrazol-3-yl)pyridin-2-yl)-3-((1r,4r)-4-(isopropylamino)cyclohexyl)urea] are 49% and 87.3%.
`COc1cc(F)ccc1-c1cc(NC(=O)NC2CCC(NC(C)=O)CC2)ncn1` (stereo not drawn) [Example 40, N-((1r,4r)-4-(3-(6-(4-fluoro-2-methoxyphenyl)pyrimidin-4-yl)ureido)cyclohexyl)acetamide]: the inhibition at 0.01 µM amounted to 25.3% and the inhibition at 0.1 µM is 59.5%.
In the same order, the values of `COc1cc(F)ccc1-c1cc(NC(=O)NC2CCC(NC(C)=O)CC2)ncc1C#N` (stereo not drawn) [Example 32, N-((1r,4r)-4-(3-(5-cyano-4-(4-fluoro-2-methoxyphenyl)pyridin-2-yl)ureido)cyclohexyl)acetamide] are 18.1% and 59.8%.
`CC1(C)Cc2c(-c3cc(NC(=O)NC4CCC(N5CCOCC5)CC4)ncc3Cl)cnn2C1` (stereo not drawn) [Example 92, 1-(5-chloro-4-(5,5-dimethyl-5,6-dihydro-4H-pyrrolo[1,2-b]pyrazol-3-yl)pyridin-2-yl)-3-((1r, 4r)-4-morpholinylcyclohexyl)urea]: the inhibition at 0.01 µM amounted to 58.9% and the inhibition at 0.1 µM is 93.7%.
In the same order, the values of `COc1cc(-c2ccnc(NC(=O)NC3CCC(N)CC3)c2)ccc1F` (stereo not drawn) [Example 6, 1-((1r,4r)-4-aminocyclohexyl)-3-(4-(4-fluoro-3-methoxyphenyl)pyridin-2-yl)urea] are 32% and 74.1%.
In the case of `CC1(C)Cc2c(-c3cc(NC(=O)NC4CCC(NC(=O)C5CC5)CC4)ncc3Cl)cnn2C1` (stereo not drawn) [Example 49], the inhibition at 0.01 µM came out at 58% and the inhibition at 0.1 µM amounted to 89.2%.
With `CC(=O)NC1CCC(NC(=O)Nc2cc(-n3cnc(C4CC4)c3)c(Cl)cn2)CC1` (stereo not drawn) [Example 87, N-((1r,4r)-4-(3-(5-chloro-4-(4-cyclopropyl-1H-imidazol-1-yl)pyridin-2-yl)ureido)cyclohexyl)acetamide], the inhibition at 0.01 µM was determined as 43.8% and the inhibition at 0.1 µM was found to be 75.3%.
In the same order, the values of `COc1cc(F)ccc1-c1ccnc(NC(=O)NC2CC(O)C2)c1` (stereo not drawn) [Example 36, 1-(4-(4-fluoro-2-methoxyphenyl)pyridin-2-yl)-3((1r,3r)-3-hydroxycyclobutyl)urea] are 16.5% and 62.8%.
In the same order, the values of `COc1cc(F)ccc1-c1cc(NC(=O)NC2CCC(NC(C)=O)CC2)ncc1F` (stereo not drawn) [Example 30, N-((1r,4r)-4-(3-(5-fluoro-4-(4-fluoro-2-methoxyphenyl)pyridin-2-yl)ureido)cyclohexyl)acetamide] are 23.1% and 55.3%.
In the same order, the values of `CC1(C)Cc2c(-c3cc(NC(=O)NCCCN)ncc3Cl)cnn2C1` [Example 72, 1-(3-aminopropyl)-3-(5-chloro-4-(5,5-dimethyl-5,6-dihydro-4H-pyrrolo [1,2-b]pyrazol-3-yl)pyridin-2-yl)urea] are 45% and 69%.

Values taken from patent US20240351986A1, “UREA COMPOUND CONTAINING 2-HETEROAROMATIC RING SUBSTITUTION, PREPARATION METHOD THEREFOR AND USE THEREOF” (SHANGHAI INSTITUTE OF MATERIA MEDICA, CHINESE ACADEMY OF …, priority 2021, published 2024).
